Experimental data as given in US5574178A, “4,6-Di-t-butyl-dihydrobenzofuran-5-ol and its derivatives” (Chugai Seiyaku Kabushiki Kaisha, priority 1992, dated 1996).

Tests used:
Type in all cases: biochemical
[1] = test system: Rabbit LDL; experiment: Amount of TBARS (Cu^2+-induced oxidation of rabbit LDL); details: 5 μM Cu^2+
Experimental: Rabbit LDL was prepared in accordance with the method of Havel et al. [Havel, R. J. et al., J. Clin. Invest., 34, (1955)]. After adding 5 μM of Cu^2+, the mixture was warmed until a thiobarbituric acid reactive substance (TBARS) was produced. The test compounds were evaluated for their anti-oxidative action with the amount of TBARS being used as an index. [formula]

[2] = biological target: lipid peroxidation due to the autoxidation of linoleic acid; experiment: Linoleic acid-MCLA system, Test Case 4; details: linoleic acid 10 mM, MCLA 2 μM, 1-butanol, 37° C.; read-out: 50% inhibition concentration
Experimental: The test compounds were evaluated for their inhibitory effect against lipid peroxidation due to the autoxidation of linoleic acid.
A reaction solution was prepared by mixing linoleic acid and MCLA (2-methyl-6-(p-methoxyphenyl)-3,7-dihydroimidazo[1,2-a]pyrazin-3-one) in 1-butanol and stored in ice until use. An amount of this reaction solution was sampled in a chemiluminescence measuring cell and, immediately thereafter, the intensity of chemiluminescence due to the autoxidation of linoleic acid was measured at 37° C. in a thermostatic bath. A normal chemiluminescence intensity measurement was conducted about 2-4 min later when the chemiluminescence substantially peaked.

[3] = test system: xanthine oxidase (XOD)-hypoxanthine (HX) system (superoxide); experiment: Xanthine oxidase system (superoxide generating system); details: pH 7.4, 37° C.
Experimental: The test compounds were evaluated under the following conditions for their effect in a reaction due to a xanthine oxidase (XOD)-hypoxanthine (HX) system in aqueous solution.
Xanthine oxidase 0.1 U/ml
Hepes buffer solution (pH 7.4)
A reaction solution was prepared by mixing hypoxanthine and luminol in the Hepes buffer solution and stored in ice until use. After warming the reaction solution at 37° C. for about 10 min, the reaction was started by addition of the xanthine oxidase solution. A measurement was started right after the addition of xanthine oxidase and subsequent stirring; chemiluminescence intensity was normally measured right after the start of the reaction. In the experimental model, luminol-dependent chemiluminescence induced by superoxide generated by enzymatic reaction of xanthine oxidase was detected, thus enabling the measurement of the reactivity with superoxide.

| Compound | TBARS produced (%) ([1]; at 10^-5 M of compound, 10 µM) | TBARS produced (%) ([1]; at 10^-6 M of compound, 1 µM) | IC50 [2] | Chemiluminescence intensity (% of control) ([3]; at 20 μM of compound) | Chemiluminescence intensity (% of control) ([3]; at 200 μM of compound) |
| --- | --- | --- | --- | --- | --- |
| CC1Cc2c(cc(C(C)(C)C)c(O)c2C(C)(C)C)O1 (centres unmarked) [Compound b, 4,6-Di-tert-Butyl-5-Hydroxy-2-Methyl-2,3-Dihydrobenzofuran] | 8.9% | 53.8% | – | – | – |
| C=CCOc1cc(C(C)(C)C)c(O)c(C(C)(C)C)c1C [Compound v, 4-Allyloxy-2,6-Di-tert-Butyl-3-Methylphenol] | 80.3% | 99.3% | – | – | – |
| CC(C)(C)c1cc2c(cc1O)CC(C(C)(C)C)O2 (centres unmarked) [Comparison 4, reference compound] | – | – | 42 µM | – | – |
| CC(C)(C)c1cc2c(c(C(C)(C)C)c1O)CC1(CCCCC1)O2 [Compound n, 4,6-Di-tert-Butyl-5-Hydroxy-2,3-Dihydrobenzofuran-2-Spiro-1'-cyclohexane] | 15.6% | 76.2% | 9 µM | 100.3 % of control | 104.9 % of control |
| CCCCCCCCC1(CCCCCCCC)Cc2c(cc(C(C)(C)C)c(O)c2C(C)(C)C)O1 [Compound y, 4,6-Di-tert-Butyl-2,2-Di-n-Octyl-5-Hydroxy-2,3-Dihydrobenzofuran] | 72.3% | 85.4% | – | 94.2 % of control | 110.2 % of control |
| CC(C)C1(C(C)C)Cc2c(cc(C(C)(C)C)c(O)c2C(C)(C)C)O1 [Compound i, 4,6-Di-tert-Butyl-2,2-Di-i-Propyl-5-Hydroxy-2,3-Dihydrobenzofuran] | 10.3% | 90.8% | – | – | – |
| CC(C)(C)c1c(O)ccc2c1CC(CO)O2 (centres unmarked) [Comparison 3, reference compound] | – | – | 54 µM | – | – |
| CC(C)(C)c1cc2c(c(C(C)(C)C)c1O)CC(Cc1ccccc1)(Cc1ccccc1)O2 [Compound k, 4,6-Di-tert-Butyl-2,2-Dibenzyl-5-Hydroxy-2,3-Dihydrobenzofuran] | 11.1% | 93.0% | – | – | – |
| CCCCCC1(CCCCC)Cc2c(cc(C(C)(C)C)c(O)c2C(C)(C)C)O1 [Compound x, 4,6-Di-tert-Butyl-2,2-Di-n-Pentyl-5-Hydroxy-2,3-Dihydrobenzofuran] | 42.1% | 96.3% | 5 µM | 84.5 % of control | 85.6 % of control |
| Cc1cc2c(C(C)(C)C)c(O)c(C(C)(C)C)cc2o1 [Compound s, 4,6-Di-tert-Butyl-5-Hydroxy-2-Methylbenzofuran] | 39.2% | 75.7% | – | – | – |
| CC(C)(C)c1cc2c(c(C(C)(C)C)c1O)CC(C(C)(C)C)O2 (centres unmarked) [Compound h, 2,4,6-Tri-tert-Butyl-5-Hydroxy-2,3-Dihydrobenzofuran] | 10.6% | 74.0% | 9 µM | – | – |
| CCCCC1(CCCC)Cc2c(cc(C(C)(C)C)c(O)c2C(C)(C)C)O1 [Compound f, 4,6-Di-tert-Butyl-2,2-Di-n-Butyl-5-Hydroxy-2,3-Dihydrobenzofuran] | 12.2% | 81.6% | 8 µM | 91.0 % of control | 102.4 % of control |
| CC(C)CCC1(CCC(C)C)Cc2c(cc(C(C)(C)C)c(O)c2C(C)(C)C)O1 [Compound z, 2,2-Diisoamyl-4,6-Di-tert-Butyl-5-Hydroxy-2,3-Dihydrobenzofuran] | 22.9% | 77.5% | 6 µM | 99.2 % of control | 107.5 % of control |
| CC1(C)Cc2c(cc(C(C)(C)C)c(O)c2C(C)(C)C)O1 [Compound c, 5-Hydroxy-4,6-Di-tert-Butyl-2,2-Dimethyl-2,3-Dihydrobenzofuran] | 9.2% | 55.3% | 7 µM | – | – |
| Cc1c(OCCCOc2cc(C(C)(C)C)c(O)c(C(C)(C)C)c2C)cc(C(C)(C)C)c(O)c1C(C)(C)C [Compound w, 1,3-Bis(3,5-Di-tert-Butyl-4-Hydroxy-2-Methylphenoxy)propane] | 17.2% | 71.3% | – | – | – |
| CC(C)(C)c1cc2occc2c(C(C)(C)C)c1O [Compound r, 4,6-Di-tert-Butyl-5-Hydroxybenzofuran] | 30.1% | 74.2% | – | – | – |
| CCC1(CC)Cc2c(cc(C(C)(C)C)c(O)c2C(C)(C)C)O1 [Compound d, 4,6-Di-tert-Butyl-2,2-Diethyl-5-Hydroxy-2,3-Dihydrobenzofuran] | 9.4% | 76.9% | – | – | – |
| CC(C)(C)c1cc2c(c(C(C)(C)C)c1O)CC1(CCCCCCC1)O2 [Compound p, 4,6-Di-tert-Butyl-5-Hydroxy-2,3-Dihydrobenzofuran-2-Spiro-1'-Cyclooctane] | 22.0% | 91.8% | – | – | – |
| CC(C)(C)c1cc2c(c(C(C)(C)C)c1O)CC(CCl)O2 (centres unmarked) [l, 4,6-tert-Butyl-2-Chloromethyl-5-Hydroxy-2,3-Dihydrobenzofuran] | 8.1% | 11.5% | – | – | – |
| CC(C)(C)c1cc2c(c(C(C)(C)C)c1O)CC1(CCCCCC1)O2 [Compound o, 4,6-Di-tert-Butyl-5-Hydroxy-2,3-Dihydrobenzofuran-2-Spiro-1'-Cycloheptane] | 9.0% | 91.2% | – | – | – |
| CCCOc1cc(C(C)(C)C)c(O)c(C(C)(C)C)c1C [Compound u, 2,6-Di-tert-Butyl-3-Methyl-4-Propyloxyphenol] | 47.3% | 87.7% | – | – | – |
| CCCC1(CCC)Cc2c(cc(C(C)(C)C)c(O)c2C(C)(C)C)O1 [Compound e, 4,6-Di-tert-Butyl-2,2-Di-n-Propyl-5-Hydroxy-2,3-Dihydrobenzofuran] | 13.5% | 86.3% | – | – | – |
| CC(C)(C)c1cc2c(c(C(C)(C)C)c1O)CC(c1ccccc1)(c1ccccc1)O2 [Compound j, 4,6-Di-tert-Butyl-2,2-Diphenyl-5-Hydroxy-2,3-Dihydrobenzofuran] | 11.6% | 93.1% | – | – | – |
| CC(C)(C)c1cc2c(C(C)(C)C)c(O)c(C(C)(C)C)cc2o1 [Compound t, 2,4,6-Tri-tert-Butyl-5-Hydroxybenzofuran] | 68.0% | 81.7% | – | – | – |
